Reference: US20090221567A1, “MUSCARINIC RECEPTOR AGONISTS, COMPOSITIONS, METHODS OF TREATMENT THEREOF, AND PROCESSES FOR PREPARATION THEREOF 177” (ASTRAZENECA AB, priority 2008, published 2009)

What was measured:
[1] = biological target: T1, hM1 (human Muscarinic receptor subtype 1) (Homo sapiens, UniProt P11229); assay: Human M1 calcium mobilization FLIPR assay; type: cell-based; details: receptor expressed in CHO cells, intracellular Ca2+ release; read-out: hM1 EC50
T1 construct: expressed in transfected cells; host or cells: CHO cells (Chinese hamster ovary cells, ATCC)
T1 sequence (P11229 1-460): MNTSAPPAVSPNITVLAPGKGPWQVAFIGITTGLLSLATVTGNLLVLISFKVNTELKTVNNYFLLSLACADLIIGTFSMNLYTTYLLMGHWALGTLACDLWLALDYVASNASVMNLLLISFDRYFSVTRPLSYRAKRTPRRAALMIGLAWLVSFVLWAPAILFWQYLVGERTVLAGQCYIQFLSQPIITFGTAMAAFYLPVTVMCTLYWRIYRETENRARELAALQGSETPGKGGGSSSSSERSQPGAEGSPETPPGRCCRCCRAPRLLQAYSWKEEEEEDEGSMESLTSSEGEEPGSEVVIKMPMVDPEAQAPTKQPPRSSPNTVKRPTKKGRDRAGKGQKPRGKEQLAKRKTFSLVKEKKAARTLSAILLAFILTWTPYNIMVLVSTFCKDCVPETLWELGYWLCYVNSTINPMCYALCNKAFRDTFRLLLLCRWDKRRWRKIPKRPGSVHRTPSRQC
Procedure: (§1) The compound activity in the present invention (EC50 or IC50) is measured using a 384 plate-based imaging assay that monitors drug induced intracellular Ca^2+ release in whole cells. Activation of hM1 (human Muscarinic receptor subtype 1, gene bank access NM_000738), rM1 (rat Muscarinic receptor subtype 1, gene bank access NM_080773), hM3 (human Muscarinic receptor subtype 3, gene bank access NM_000740NM_000740) and hM5 (human Muscarinic receptor subtype 5, gene bank access NM_0121258), receptors expressed in CHO cells (Chinese hamster ovary cells, ATCC) is quantified in a Molecular Devices FLIPR IITM instrument as an increase in fluorescent signal. Inhibition of hM3 and hM5 by compounds is determined by the decrease in fluorescent signal in response to 2 nM acetylcholine activation.
(§2) Prior to experiment, the cell culture medium is removed from the plates by inversion. […] Plates are incubated at 37° C. for 60 minutes prior to start the experiment. The incubation is terminated by washing the cells four times in assay buffer, leaving a residual 25 μl buffer per well. Cell plates are then transferred to the FLIPR, ready for compound additions.
(§3) The day of experiment, acetylcholine and compounds are diluted in assay buffer in three-fold concentration range (10 points serial dilution) for addition by FLIPR instrument. For all calcium assays, a baseline reading is taken for 10 seconds followed by the addition of 12.5 μl of compounds, resulting in a total well volume of 37.5 μl. Data is collected every second for 60 pictures and then every 6 seconds for 20 pictures prior to the addition of agonist. For hM3 and hM5, before agonist addition, a second baseline reading is taken for 10 seconds followed by the addition of 12.5 μl of agonist or buffer, producing a final volume of 50 μl. After agonist stimulation, the FLIPR continues to collect data every second for 60 pictures and then every 6 seconds for 20 pictures. The fluorescence emission is read using filter 1 (emission 510-570 nm) by the FLIPR on board CCD camera.
(§4) Calcium mobilization output data are calculated as the maximal relative fluorescence unit (RFU) minus the minimal value for both compound and agonist reading frame (except for hM1 and rM1 using only the maximal RFU). Data are analyzed using sigmoidal fits of a non-linear curve-fitting program (XLfit version 4.2.2 Excel add-in version 4.2.2 build 18 math 1Q version 2.1.2 build 18). All pEC50 and pIC50 values are reported as arithmetic means±standard error of mean of ‘n’ independent experiments.

[2] = biological target: T2, hM3 (human Muscarinic receptor subtype 3) (Homo sapiens, UniProt P20309); assay: Human M3 calcium mobilization FLIPR assay; type: cell-based; details: receptor expressed in CHO cells, intracellular Ca2+ release
T2 construct: expressed in transfected cells; host or cells: CHO cells (Chinese hamster ovary cells, ATCC)
T2 sequence (P20309 whole entry): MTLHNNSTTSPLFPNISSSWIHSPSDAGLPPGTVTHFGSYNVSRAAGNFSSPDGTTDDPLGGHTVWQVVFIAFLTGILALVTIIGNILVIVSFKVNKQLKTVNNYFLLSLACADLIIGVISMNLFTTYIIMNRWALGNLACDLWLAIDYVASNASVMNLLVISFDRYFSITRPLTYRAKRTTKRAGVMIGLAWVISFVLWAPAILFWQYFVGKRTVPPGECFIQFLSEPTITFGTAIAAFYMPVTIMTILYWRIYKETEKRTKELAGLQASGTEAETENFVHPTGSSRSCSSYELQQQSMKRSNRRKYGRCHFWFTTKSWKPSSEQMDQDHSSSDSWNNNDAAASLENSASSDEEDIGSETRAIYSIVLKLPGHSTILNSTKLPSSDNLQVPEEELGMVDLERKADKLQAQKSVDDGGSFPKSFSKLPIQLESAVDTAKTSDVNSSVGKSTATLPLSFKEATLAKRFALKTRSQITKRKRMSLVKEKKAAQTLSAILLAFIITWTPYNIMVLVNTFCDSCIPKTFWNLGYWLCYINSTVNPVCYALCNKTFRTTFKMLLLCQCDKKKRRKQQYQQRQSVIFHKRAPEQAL
Procedure: as §1, §2, §3, §4

[3] = biological target: T3, human M4 receptor (human Muscarinic receptor subtype 4) (Homo sapiens, UniProt P08173); assay: hM4 receptor GTPγS binding; type: biochemical; details: CHO membranes, [35S]GTPγS binding
T3 construct: purchased Perkin-Elmer RBHM4M; host or cells: membranes from CHO cells expressing the cloned receptor
T3 sequence (P08173 1-479): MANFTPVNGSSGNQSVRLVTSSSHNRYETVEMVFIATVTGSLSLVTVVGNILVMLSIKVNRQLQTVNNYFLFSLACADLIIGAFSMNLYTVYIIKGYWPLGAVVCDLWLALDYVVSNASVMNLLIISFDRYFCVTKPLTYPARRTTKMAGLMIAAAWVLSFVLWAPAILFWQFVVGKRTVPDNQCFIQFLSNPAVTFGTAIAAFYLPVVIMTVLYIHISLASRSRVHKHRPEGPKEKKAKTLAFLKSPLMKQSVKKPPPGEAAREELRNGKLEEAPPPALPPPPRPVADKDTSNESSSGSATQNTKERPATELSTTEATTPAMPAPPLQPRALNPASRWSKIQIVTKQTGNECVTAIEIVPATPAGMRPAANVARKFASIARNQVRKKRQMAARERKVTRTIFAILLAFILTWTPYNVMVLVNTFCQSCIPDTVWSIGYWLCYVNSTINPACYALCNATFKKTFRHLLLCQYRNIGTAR
Procedure: Membranes produced from Chinese hamster ovary cells (CHO) expressing the cloned human M4 receptor (human Muscarinic receptor subtype 4, gene bank access NM_000741), are obtained from Perkin-Elmer (RBHM4M). The membranes are thawed at 37° C., passed 3 times through a 23-gauge blunt-end needle, diluted in the GTPγS binding buffer (50 mM Hepes, 20 mM NaOH, 100 mM NaCl, 1 mM EDTA, 5 mM MgCl2, pH 7.4, 100 μM DTT). The EC50, IC50 and Emax of the compounds of the invention are evaluated from 10-point dose-response curves (three fold concentration range) done in 60 μl in 384-well non-specific binding surface plate (Corning). Ten microliters from the dose-response curves plate (5× concentration) are transferred to another 384 well plate containing 25 μl of the following: 10 μg of hM4 membranes, 500 μg of Flashblue beads (Perkin-Elmer) and GDP 40 μM. An additional 15 μl containing 3.3× (60,000 dpm) of GTPγS (0.4 nM final) are added to the wells resulting in a total well volume of 50 μl. Basal and maximal stimulated [^35S]GTPγS binding are determined in absence and presence of 30 μM final of acetylcholine agonist. The membranes/beads mix are pre-incubated for 15 minutes at room temperature with 40 μM GDP prior to distribution in plates (20 μM final). The reversal of acetylcholine-induced stimulation (10 μM final) of [^35S]GTPγS binding is used to assay the antagonist properties (IC50) of the compounds. The plates are incubated for 60 minutes at room temperature then centrifuged at 400 rpm for 5 minutes. The radioactivity (cpm) is counted in a Trilux (Perkin-Elmer).
Values of EC50, IC50 and Emax are obtained using sigmoidal fits of a non-linear curve-fitting program (XLfit version 4.2.2 Excel add-in version 4.2.2 build 18 math 1Q version 2.1.2 build 18) of percent stimulated [^35S]GTPγS binding vs. log(molar ligand). All pEC50 and pIC50 values are reported as arithmetic means±standard error of mean of ‘n’ independent experiments.

Question: Which EC50 [1] does the source give for `CCOC(=O)N1CCC(C)(N2CCC(N3C(=O)CO[C@H]4CCCC[C@@H]43)CC2)C1` (single isomer, unassigned) [Example 18] here?
Answer: 0.023 µM

Question: What about the EC50 [2] of the same molecule?
Answer: > 40 µM

Question: What about the EC50 [3] of the same molecule?
Answer: 8.97 µM

Question: What does the source list for `CCOC(=O)N1CCC(C)(N2CCC(N3C(=O)CO[C@H]4CCCC[C@@H]43)CC2)C1` (single isomer, unassigned) [Example 19]?
Answer: EC50 [1]: 0.046 µM; EC50 [2]: > 40 µM; EC50 [3]: > 30 µM

Question: With `CCOC(=O)N1CCC(N2CCC(N3C(=O)NC[C@H]4CCCC[C@@H]43)CC2)CC1` [Example 1, Ethyl 4-[4-[(4aR,8aS)-2-oxo-3,4,4a,5,6,7,8,8a-octahydroquinazolin-1-y]-1-piperidyl]piperidine-1-carboxylate] as the molecule, how does the EC50 [1] read?
Answer: 0.0016 µM

Question: What about the EC50 [3] of the same molecule?
Answer: 1.7 µM

Question: For `CC(C)OC(=O)N1CCC(N2CCC(N3C(=O)NC[C@H]4CCCC[C@@H]43)CC2)CC1` [Example 2, Propan-2-yl 4-[4-[(4aR,8aS)-2-oxo-3,4,4a,5,6,7,8,8a-octahydroquinazolin-1-yl]-1-piperidyl]piperidine-1-carboxylate], which EC50 [1] is on record?
Answer: 0.0053 µM

Question: What about the EC50 [2] of the same molecule?
Answer: > 49 µM

Question: And the EC50 [3]?
Answer: > 20 µM

Question: `O=C(C1CC1)N1CCC(N2CCC(N3C(=O)NC[C@H]4CCCC[C@@H]43)CC2)CC1` [Example 3, (4aR,8aS)-1-[1-[1-(cyclopropanecarbonyl)-4-piperidyl]-4-piperidyl]-3,4,4a,5,6,7,8,8a-octahydroquinazolin-2-one] was tested. Which EC50 [1] did it give?
Answer: 0.013 µM

Question: What about the EC50 [2] of the same molecule?
Answer: > 49 µM

Question: What about the EC50 [3] of the same molecule?
Answer: > 30 µM

Question: Which EC50 [1] does the source give for `Cc1ccccc1C(=O)N1CCC(N2CCC(N3C(=O)NC[C@H]4CCCC[C@@H]43)CC2)CC1` [Example 4, (4aR,8aS)-1-[1-[1-(2-methylbenzoyl)-4-piperidyl]-4-piperidyl]-3,4,4a,5,6,7,8,8a-octahydroquinazolin-2-one] here?
Answer: 0.025 µM

Question: And the EC50 [2]?
Answer: > 49 µM

Question: What about the EC50 [3] of the same molecule?
Answer: > 30 µM

Question: How did the EC50 [1] turn out when `CC(C)OC(=O)N1CCC(N2CCC(N3C(=O)N(C)C[C@H]4CCCC[C@@H]43)CC2)CC1` [Example 6, Propan-2-yl 4-[4-[(4aR,8aS)-3-methyl-2-oxo-4a,5,6,7,8,8a-hexahydro-4H-quinazolin-1-yl]-1-piperidyl]piperidine-1-carboxylate] was run?
Answer: 0.094 µM

Question: And the EC50 [2]?
Answer: > 40 µM

Question: What about the EC50 [3] of the same molecule?
Answer: > 30 µM

Question: For `CCOC(=O)N1CCC(C)(N2CCC(N3C(=O)NC[C@H]4CCCC[C@@H]43)CC2)CC1` [Example 7, Ethyl 4-[4-[(4aR,8aS)-2-oxo-3,4,4a,5,6,7,8,8a-octahydroquinazolin-1-yl]-1-piperidyl]-4-methyl-piperidine-1-carboxylate], which EC50 [1] is on record?
Answer: 0.0045 µM

Question: What about the EC50 [2] of the same molecule?
Answer: 0.69 µM

Question: And the EC50 [3]?
Answer: > 1.6 µM

Question: With `CC(C)OC(=O)N1CCC(C)(N2CCC(N3C(=O)NC[C@H]4CCCC[C@@H]43)CC2)CC1` [Example 8, Propan-2-yl 4-[4-[(4aR,8aS)-2-oxo-3,4,4a,5,6,7,8,8a-octahydroquinazolin-1-yl]-1-piperidyl]-4-methyl-piperidine-1-carboxylate] as the molecule, how does the EC50 [1] read?
Answer: < 0.011 µM

Question: And the EC50 [2]?
Answer: > 40 µM

Question: What about the EC50 [3] of the same molecule?
Answer: > 30 µM

Question: How did the EC50 [1] turn out when `CCOC(=O)N1CCC(N2CCC(N3C(=O)CO[C@H]4CCCC[C@@H]43)CC2)CC1` [Example 9, Ethyl 4-[4-[(1S,6S)-9-oxo-7-oxa-10-azabicyclo[4.4.0]dec-10-yl]-1-piperidyl]piperidine-1-carboxylate] was run?
Answer: 0.017 µM

Question: And the EC50 [2]?
Answer: > 40 µM

Question: What about the EC50 [3] of the same molecule?
Answer: 4.3 µM

Question: Which EC50 [1] does the source give for `CC(C)OC(=O)N1CCC(N2CCC(N3C(=O)CO[C@H]4CCCC[C@@H]43)CC2)CC1` [Example 10, Propan-2-yl 4-[4-[(1S,6S)-9-oxo-7-oxa-10-azabicyclo[4.4.0]dec-10-yl]-1-piperidyl]piperidine-1-carboxylate] here?
Answer: 0.022 µM

Question: And the EC50 [2]?
Answer: > 40 µM

Question: What about the EC50 [3] of the same molecule?
Answer: > 30 µM

Question: What does the source list for `Cc1ccccc1C(=O)N1CCC(N2CCC(N3C(=O)CO[C@H]4CCCC[C@@H]43)CC2)CC1` [Example 11, (1S,6S)-10-[1-[1-(2-methylbenzoyl)-4-piperidyl]-4-piperidyl]-7-oxa-10-azabicyclo[4.4.0]decan-9-one]?
Answer: EC50 [1]: 0.17 µM; EC50 [2]: > 40 µM; EC50 [3]: > 30 µM

Question: Which EC50 [1] does the source give for `Cn1cccc1C(=O)N1CCC(N2CCC(N3C(=O)CO[C@H]4CCCC[C@@H]43)CC2)CC1` [Example 12, (1S,6S)-10-[1-[1-(1-methylpyrrole-2-carbonyl)-4-piperidyl]-4-piperidyl]-7-oxa-10-azabicyclo[4.4.0]decan-9-one] here?
Answer: 0.34 µM

Question: What about the EC50 [2] of the same molecule?
Answer: > 40 µM

Question: And the EC50 [3]?
Answer: > 30 µM

Question: For `CCOC(=O)N1CC[C@H](N2CCC(N3C(=O)CO[C@H]4CCCC[C@@H]43)CC2)C1` [Example 13, Ethyl (3S)-3-[4-[(1S,6S)-9-oxo-7-oxa-10-azabicyclo[4.4.0]dec-10-yl]-1-piperidyl]pyrrolidine-1-carboxylate], which EC50 [1] is on record?
Answer: 0.2 µM

Question: What about the EC50 [2] of the same molecule?
Answer: > 40 µM

Question: What about the EC50 [3] of the same molecule?
Answer: > 30 µM

Question: `CC(C)OC(=O)N1CCC(N2CCC(N3C(=O)CO[C@@H]4CCCC[C@H]43)CC2)CC1` [Example 14, Propan-2-yl 4-[4-[(1R,6R)-9-oxo-7-oxa-10-azabicyclo[4.4.0]dec-10yl]-1-piperidyl]piperidine-1-carboxylate] was tested. Which EC50 [1] did it give?
Answer: 0.13 µM

Question: What about the EC50 [2] of the same molecule?
Answer: > 40 µM

Question: And the EC50 [3]?
Answer: > 30 µM

Question: For `CCOC(=O)N1CCC(N2CCC(N3C(=O)OC[C@H]4CCCC[C@@H]43)CC2)CC1` [Example 15, Ethyl 4-[4-[(1S,6S)-9-oxo-8-oxa-10-azabicyclo[4.4.0]dec-10-yl]-1-piperidyl]piperidine-1-carboxylate], which EC50 [1] is on record?
Answer: 0.083 µM

Question: What about the EC50 [2] of the same molecule?
Answer: > 40 µM

Question: What about the EC50 [3] of the same molecule?
Answer: > 30 µM
